“And” between values parts separate entries of the source, which are not always exact repeats. Equal entries are not always repeated. Where two headings read alike, the source gives them in different places.
Assays:
K-562 [1] = test: In vitro cytotoxicity / antiproliferative activity, resazurin viability assay, 72 h; assay type: cell-based, human
CDK2/cyclin E [2] = target: T1, CDK2/cyclin E (Homo sapiens, UniProt P24941); test: CDK2/cyclin E kinase inhibition assay ([γ-33P]ATP, peptide substrate); assay type: biochemical
Procedure: CDK2/cyclin E activity was assayed as previously described. Briefly, the kinase was assayed with [γ-^33P]ATP and suitable peptide substrates in a reaction buffer (60 mM HEPES-NaOH, pH 7.5, 3 mM MgCl2, 3 mM MnCl2, 3 μM Na-orthovanadate, 1.2 mM DTT, 2.5 μg/50 μL PEG20.000). The reactions were stopped by adding 5 µL of 3% aq. H3PO4. Aliquots were spotted onto P-81 phosphocellulose, washed with 0.5% aq. H3PO4 and air-dried. Kinase inhibition was quantified using an FLA-7000 digital image analyser.

MCF-7 [3] = test: In vitro cytotoxicity / antiproliferative activity, resazurin viability assay, 72 h; assay type: cell-based, human
MCF-7 [4] = test system: MCF-7; set-up: method as in Popowycz et al. [51]; settings: single purine; ref Popowycz et al. [51]; cited from earlier work
K-562 [5] = test system: K-562; set-up: method as in Popowycz et al. [51]; settings: single purine; ref Popowycz et al. [51]; cited from earlier work
CDK2 = settings: no inhibition activity; read-out: IC50 towards CDK2; cited from earlier work
CDK1 = test system: CDK1; set-up: method as in PMID 24900429; settings: no inhibition activity; read-out: IC50 towards CDK1; cited from earlier work
CDK2/cyclin E [6] = target: T1, CDK2/cyclin E; settings: Figure 1; cited from earlier work
[7] = Homo sapiens, K562, single purine, 72 h, read-out: K-562 GI50, Purine
[8] = mixture purine·β-CD 1:1, 72 h, read-out: K-562 GI50, Purine·β-CD (1:1)
[9] = mixture purine·β-CD 1:10, 72 h, read-out: K-562 GI50, Purine·β-CD (1:10)
[10] = mixture purine·β-CD 1:1 molar ratio, read-out: CDK2/Cyclin E IC50, Purine·β-CD (1:1)
[11] = mixture purine·β-CD 1:10 molar ratio, read-out: CDK2/Cyclin E IC50, Purine·β-CD (1:10)
[12] = single purine, no β-CD, mean ± SD of duplicated experiments, read-out: CDK2/Cyclin E IC50, Purine
[13] = Homo sapiens, MCF7, single purine, 72 h, read-out: MCF-7 GI50, Purine
[14] = mixture purine·β-CD 1:1, 72 h, read-out: MCF-7 GI50, Purine·β-CD (1:1)
[15] = mixture purine·β-CD 1:10, 72 h, read-out: MCF-7 GI50, Purine·β-CD (1:10)
[16] = mixture purine·β-CD 1:1 molar ratio
[17] = mixture purine·β-CD 1:10 molar ratio
[18] = single purine, no β-CD, mean ± SD of duplicated experiments

Structure (SMILES)	IC50 (CDK2/cyclin E [2]; [10]) [µM]	IC50 (CDK2/cyclin E [2]; [11]) [µM]	IC50 (CDK2/cyclin E [2]; [12])	melting point [°C]	GI50 (K-562 [1]; [7]) [µM]	GI50 (K-562 [1]; [8]) [µM]	GI50 (K-562 [1]; [9]) [µM]	GI50 (MCF-7 [3]; [13]) [µM]	GI50 (MCF-7 [3]; [14]) [µM]	GI50 (MCF-7 [3]; [15]) [µM]	CDK2/Cyclin E IC50, Purine·β-CD (1:1) (CDK2/cyclin E [2]; [16])	further results
CC(C)n1cnc2c(Nc3ccc(C(=O)C45CC6CC(CC(C6)C4)C5)cc3)nc(NCCCO)nc21 [Compound 4d, (1-Adamantyl)[4-({2-[(3-hydroxypropyl)amino]-9-isopropyl-9H-purin-6-yl}amino)phenyl]methanone]	1.4 ± 0.5	7.57	0.6 ± 0.2 µM	–	5.45	16.5 ± 0.7	> 40	5.72	13.8 ± 1.4	> 40	–	Fold more potent at inhibiting cell proliferation on K-562 than bohemine (K-562 [1]; single purine): 17.8 fold; Fold more potent at inhibiting cell proliferation on K-562 than roscovitine (K-562 [1]; single purine): 9.2 fold; IC50 (CDK2/cyclin E [2]; single purine, read-out: CDK2/cyclin E IC50): 0.58 µM; Efficacy on MCF-7, fold higher than bohemine (MCF-7 [3]; single purine): 4.7 fold; Efficacy on MCF-7, fold higher than roscovitine (MCF-7 [3]; single purine): 2.2 fold
CC(C)n1cnc2c(Nc3ccc(C(O)C45CC6CC(CC(C6)C4)C5)cc3)nc(NCCCO)nc21 (stereo not drawn) [Compound 4e, 3-{[6-({4-[1-Adamantyl(hydroxy)methyl]phenyl}amino)-9-isopropyl-9H-purin-2-yl]amino}propan-1-ol]	1.53	26.1	1.6 ± 0.7 µM	–	10.1 ± 0.8	18.7 ± 0.6	> 40	8.1 ± 0.7	17 ± 2	> 40	essentially consistent with their non-complexed forms	–
CC(C)n1cnc2c(NCc3ccc(C(=O)CC45CC6CC(CC(C6)C4)C5)cc3)nc(NCCCO)nc21 [Compound 4j]	15.7	20.9	3.26 ± 0.01 µM	–	> 6.25	17.7 ± 0.6	> 40	> 6.25	21.51 ± 0.04	> 40	–	Activity on CDK2/cyclin E, fold higher than meta-analogue 4i (CDK2/cyclin E [2]; single purine, para versus meta): 4.3 fold
CC[C@H](CO)Nc1nc(NCc2ccccc2)c2ncn(C(C)C)c2n1 [Compound 4l, roscovitine]	–	–	–	–	–	–	–	–	–	–	–	GI50 (MCF-7 [4]): 12.6 µM; GI50 (K-562 [5]): 50.1 µM
CC(C)n1cnc2c(NC34CC5CC(CC(C5)C3)C4)nc(NCCCO)nc21 [Compound 4m, 6-[(1-adamantyl)amino]-2-[(3-hydroxypropyl)amino]-9-(propan-2-yl)purine]	–	–	–	–	–	–	–	–	–	–	–	IC50 (CDK2): > 100 µM; IC50 (CDK1): > 100 µM; IC50 (CDK2/cyclin E [6]): > 100 µM
CC(C)n1cnc2c(NC34CC5CC(CC(C5)C3)C4)nc(NCC(O)CO)nc21 (stereo not drawn) [Compound 4n]	–	–	–	–	–	–	–	–	–	–	–	IC50 (CDK2/cyclin E [6]): > 100 µM

Further lines, with some results ahead:

IC50 (CDK2/cyclin E [2]; [10]) [µM]	IC50 (CDK2/cyclin E [2]; [11]) [µM]	IC50 (CDK2/cyclin E [2]; [12])	melting point [°C]	Structure (SMILES)	GI50 (K-562 [1]; [7]) [µM]	GI50 (K-562 [1]; [8]) [µM]	GI50 (K-562 [1]; [9]) [µM]	GI50 (MCF-7 [3]; [13]) [µM]	GI50 (MCF-7 [3]; [14]) [µM]	GI50 (MCF-7 [3]; [15]) [µM]	CDK2/Cyclin E IC50, Purine·β-CD (1:1) (CDK2/cyclin E [2]; [16])	further results
5.5 ± 1.3	> 40	2.55 ± 0.08 µM	–	CC(C)n1cnc2c(Nc3cccc(C(=O)C45CC6CC(CC(C6)C4)C5)c3)nc(NCCCO)nc21 [Compound 4a, (1-Adamantyl)[3-({2-[(3-hydroxypropyl)amino]-9-isopropyl-9H-purin-6-yl}amino)phenyl]methanone]	6.16	15 ± 0.16	> 40	> 6.25	15.7 ± 0.9	> 40	–	–
0.16	0.3 ± 0.2	0.21 ± 0.02 µM	88 to 93	CC(C)n1cnc2c(Nc3cccc(C(O)C45CC6CC(CC(C6)C4)C5)c3)nc(NCCCO)nc21 (stereo not drawn) [Compound 4b, 3-{[6-({3-[1-Adamantyl(hydroxy)methyl]phenyl}amino)-9-isopropyl-9H-purin-2-yl]amino}propan-1-ol]	> 6.25	34.69 ± 0.14	> 40	> 6.25	32 ± 3	> 40	essentially consistent with their non-complexed forms	Activity on CDK2/cyclin E, fold higher than bohemine (CDK2/cyclin E [2]; single purine, versus bohemine (4k)): 3.5 fold
1.85	> 40	> 10 µM and 12 µM	88 to 93	CC(C)n1cnc2c(Nc3cccc(CC45CC6CC(CC(C6)C4)C5)c3)nc(NCCCO)nc21 [Compound 4c, 3-{[6-{[3-(1-Adamantylmethyl)phenyl]amino}-9-isopropyl-9H-purin-2-yl]amino}propan-1-ol]	> 6.25	28.7 ± 10.2	> 40	> 6.25	> 40	> 40	–	–
> 40	> 40	> 12.5 µM	–	CC(C)n1cnc2c(Nc3ccc(CC45CC6CC(CC(C6)C4)C5)cc3)nc(NCCCO)nc21 [Compound 4f, 3-{[6-{[4-(1-Adamantylmethyl)phenyl]amino}-9-isopropyl-9H-purin-2-yl]amino}propan-1-ol]	10.4 ± 0.7	24 ± 3	> 40	> 12.5	32.9 ± 0.1	> 40	no activity	CDK2/Cyclin E IC50, Purine·β-CD (1:10) (CDK2/cyclin E [2]; [17]): no activity; CDK2/Cyclin E IC50, Purine (CDK2/cyclin E [2]; [18]): no activity
1.24	7.15	0.92 ± 0.18 µM	87 to 91	CC(C)n1cnc2c(Nc3cccc(C(O)CC45CC6CC(CC(C6)C4)C5)c3)nc(NCCCO)nc21 (stereo not drawn) [Compound 4g, 3-{[6-({3-[2-(1-Adamantyl)-1-hydroxyethyl]phenyl}amino)-9-isopropyl-9H-purin-2-yl]amino}propan-1-ol]	> 6.25	33.6 ± 1.2	> 40	> 6.25	17 ± 2	> 40	essentially consistent with their non-complexed forms	–
> 40	> 40	> 12.5 µM	72 to 78	CC(C)n1cnc2c(Nc3cccc(CCC45CC6CC(CC(C6)C4)C5)c3)nc(NCCCO)nc21 [Compound 4h, 3-{[6-({3-[2-(1-Adamantyl)ethyl]phenyl}amino)-9-isopropyl-9H-purin-2-yl]amino}propan-1-ol]	> 12.5	> 40	> 40	> 12.5	> 40	> 40	no activity	CDK2/Cyclin E IC50, Purine·β-CD (1:10) (CDK2/cyclin E [2]; [17]): no activity; CDK2/Cyclin E IC50, Purine (CDK2/cyclin E [2]; [18]): no activity
> 40	30.7	> 10 µM and 14 µM	64 to 69	CC(C)n1cnc2c(NCc3cccc(C(=O)CC45CC6CC(CC(C6)C4)C5)c3)nc(NCCCO)nc21 [Compound 4i]	> 6.25	19.8 ± 0.5	> 40	> 6.25	30 ± 5	> 40	–	–

Source: paper PMC8657435, “Adamantane-Substituted Purines and Their β-Cyclodextrin Complexes: Synthesis and Biological Activity” (International Journal of Molecular Sciences, 2021)
